# Results published in US9855242B2, “Composition for an immunomodulation” (Eberhard Karls Universität Tübingen Medizinische Fakultät, priority 2013, dated 2018).
# How the values were obtained:
# P glycoprotein = P glycoprotein (Homo sapiens, UniProt P08183); details: cited from earlier work
# human hepG2 tumor cells = assay: NK activity on HepG2 tumor cells by realtime cell monitoring (xCELLigence impedance); format: cell-based
# Procedure: In a further experiment the NK activity on human hepG2 tumor cells by means of realtime cell monitoring (Roche Applied Sciences xCELLigence SP-System, Mannheim, Germany) was analyzed. […] The cellular impedance of the adherent tumor cells were measured as parameters for the cell status (cell number, viability, morphology, adhesion). As a positive control for the induction of cell death Triton X-100 was used. Three independent experiments with expanded NK cells from three healthy human donors were carried out. Shown are the average values with standard deviation of one exemplary experiment. The HepG2 tumor cells (target) were incubated at the start of the treatment (24 hours) with 25 μM of 6-PN or 8-PN or with NK cells (effector) (effector to target ratio (E:T)=1.25:1 or 2.5:1) or with the combination of HDACi and NK cells. The normalization happened at the start of the treatment and a decrease of the impedance (normalized cell index) means a reduction of the cell viability or the cell status, respectively.
# Human NK cells [1] = assay: CellTiterBlue viability measurement on human NK cells; format: cell-based; details: 48 hours treatment; 6.25, 12.5, 25 or 50 μM of 6-PN or 8-PN, SAHA in low concentrations; versus untreated control; FIG. 2
# Procedure: Human NK cells were treated for 48 hours with 6.25, 12.5, 25 or 50 μM of 6-PN or 8-PN. In the following a viability measurement was carried out (CellTiterBlue Viability Asasy, Promega, Madison, United States of America). The clinically used and established HDACi SAHA (Vorinostat) was used in low concentrations as a reference die for both natural HDACi 6-PN and 8-PN. Shown are the mean values with a standard deviation from three independent experiments with expanded NK cells from three healthy human donors. The horizontal continuous line visualizes the value of the untreated control; a decrease of the fluorescence signal means a reduction of the viability.
# Hep3B = assay: NK activity on a further tumor cell line by realtime cell monitoring; format: cell-based; details: compared with the HepG2 result
# PBMCs of healthy donors [2] = assay: PBMC viability with automated cell counting device (NC-250); format: cell-based, human; details: one time 12.5 μM or 25 μM; daily over 336 hours; FIG. 7
# Procedure: The result is shown in the FIG. 7: PBMCs of three healthy donors were one time treated with 12.5 μM or 25 μM of 6-PN or 8-PN and subsequently on a daily basis at independent points in time examined by means of a nucleo counter NC-250 cell counting device with respect to viability over a time period of 336 hours; shown is the average value +/−SD.
# angiogenesis = details: chorioallantois membrane assays; cited from earlier work
# PBMCs of healthy donors [3] = assay: Metabolic activity of PBMCs, Promega CellTiter-Blue Assay; format: cell-based, human; details: one time 12.5 μM or 25 μM; after 48 hours; FIG. 8A
# Procedure: (§1) The result is shown in the FIG. 8: A PBMCs of two healthy donors were one time treated with 12.5 μM or 25 μM of 6-PN or 8-PN and examined after 48 hours. B NKL cells were one time treated with 12.5 μM or 25 μM of 6-PN or 8-PN and examined after 48 h. In both immune cell populations and in both treatments an increase of a metabolic activity can be detected; shown is the average value +/−SD.
# Human NK cells [4] = assay: Overall survival of NK cells, trypan blue staining and daily microscopic counting; format: cell-based; details: one time treatment with 6.25, 12.5, 25 or 50 μM; versus untreated control and SAHA treated cells; FIG. 3
# Procedure: Human NK cells were treated with 6.25, 12.5, 25 or 50 μM of 6-PN or 8-PN. Subsequently via a tryptan blue staining and a daily microscopic counting in standardized C chip counter chambers the overall survival of NK cells was measured. As a reference dye again the HDACi SAHA (Vorinostat) was used. Shown is the average value with standard deviation from three independent experiments with expanded NK cells from three healthy human donors. The left arrow visualizes <10% of living cells in the SAHA treatment group; the right arrow visualizes <10% of living cells in the untreated control group.
# PC-3 = details: in vitro; cited from earlier work
# [5] = tested on: PI (3) K/Akt signaling pathway; details: MCF-7 cells in vitro; cited from earlier work
# NK cell line NKL = assay: Metabolic activity of NKL cells, Promega CellTiter-Blue Assay; format: cell-based; details: one time 12.5 μM or 25 μM; after 48 h; FIG. 8B
# Procedure: as §1
# MCF7 cells = details: cited from earlier work
# [6] = tested on: melanoma tumor cells with adherent immune cells; assay: Primary patient material: melanoma tumor cells with adherent immune cells, tumor cell count; format: cell-based, human; details: 12.5 μM or 25 μM; 48, 72, and 96 hours after the start of the treatment; **P<0.01; FIG. 5
# [7] = tested on: angiogenesis induced by the basic fibroblast growth factor and the vascular endothelial growth factor; details: three dimensional collagen gel; bFGF and VEGF induced; cited from earlier work
# [8] = tested on: histone deacetylases (HDACs) of classes I, II, and IV; details: cited from earlier work
# [9] = tested on: estrogen receptors of the uterus of rats; details: cited from earlier work
# [10] = tested on: NK cells of healthy donors; assay: NK cell viability with automated cell counting device (NC-250); format: cell-based, human; details: one time 12.5 μM or 25 μM; daily over 336 h; FIG. 6
# Procedure: The examination therefore is independent from the experimentator. NK cells of two healthy donors were one time treated with 12.5 μM or 25 μM of 6-PN or 8-PN, respectively, and subsequently two independent points in time on a daily basis examined by means of a nucleo counter NC-250 cell counting device with respect to viability over a time period of 336 h; shown is the average value +/−SD.
# MRP1 = MRP1 (Homo sapiens, UniProt P33527); details: cited from earlier work
# DU145 = details: in vitro; cited from earlier work
# Sequence of MRP1 (P33527 whole entry): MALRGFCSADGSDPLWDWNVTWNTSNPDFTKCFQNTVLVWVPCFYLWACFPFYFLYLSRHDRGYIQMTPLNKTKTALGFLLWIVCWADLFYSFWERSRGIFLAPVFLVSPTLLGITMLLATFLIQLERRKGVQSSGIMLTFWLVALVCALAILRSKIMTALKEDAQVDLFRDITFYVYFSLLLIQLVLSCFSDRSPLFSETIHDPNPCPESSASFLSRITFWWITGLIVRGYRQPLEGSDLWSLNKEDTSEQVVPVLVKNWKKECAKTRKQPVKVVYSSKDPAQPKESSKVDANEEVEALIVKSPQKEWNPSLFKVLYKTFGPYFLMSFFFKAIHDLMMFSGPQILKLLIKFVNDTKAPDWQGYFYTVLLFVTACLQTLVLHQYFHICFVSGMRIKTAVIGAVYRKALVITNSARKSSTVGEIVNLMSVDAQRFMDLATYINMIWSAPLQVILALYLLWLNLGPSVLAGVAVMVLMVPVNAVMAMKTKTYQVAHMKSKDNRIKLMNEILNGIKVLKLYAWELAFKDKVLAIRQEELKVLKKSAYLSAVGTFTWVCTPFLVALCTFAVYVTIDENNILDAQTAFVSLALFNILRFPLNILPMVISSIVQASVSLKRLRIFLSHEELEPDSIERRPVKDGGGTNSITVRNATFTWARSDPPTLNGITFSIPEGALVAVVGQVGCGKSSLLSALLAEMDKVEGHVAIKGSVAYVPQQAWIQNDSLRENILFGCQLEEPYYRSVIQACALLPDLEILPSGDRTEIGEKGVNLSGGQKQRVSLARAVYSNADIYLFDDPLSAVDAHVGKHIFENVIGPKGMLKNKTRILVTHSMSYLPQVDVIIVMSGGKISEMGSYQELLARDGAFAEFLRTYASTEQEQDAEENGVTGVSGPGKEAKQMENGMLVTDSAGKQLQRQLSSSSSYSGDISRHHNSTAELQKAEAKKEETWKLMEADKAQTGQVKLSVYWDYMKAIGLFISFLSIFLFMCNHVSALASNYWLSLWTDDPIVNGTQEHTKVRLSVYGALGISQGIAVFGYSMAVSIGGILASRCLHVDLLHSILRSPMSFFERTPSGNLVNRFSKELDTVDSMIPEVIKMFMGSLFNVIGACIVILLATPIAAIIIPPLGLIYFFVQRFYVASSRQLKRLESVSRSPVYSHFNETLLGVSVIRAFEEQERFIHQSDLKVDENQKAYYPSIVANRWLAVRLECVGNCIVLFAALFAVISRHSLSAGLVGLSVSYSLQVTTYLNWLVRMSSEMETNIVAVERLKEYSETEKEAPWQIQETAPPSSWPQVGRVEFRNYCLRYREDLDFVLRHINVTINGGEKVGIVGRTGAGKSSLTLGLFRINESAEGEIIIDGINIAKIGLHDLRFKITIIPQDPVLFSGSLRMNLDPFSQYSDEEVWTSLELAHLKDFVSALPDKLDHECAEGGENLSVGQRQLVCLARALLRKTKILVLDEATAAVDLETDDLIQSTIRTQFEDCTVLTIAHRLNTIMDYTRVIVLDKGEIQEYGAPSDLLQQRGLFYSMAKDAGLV
# Sequence of P glycoprotein (P08183 whole entry): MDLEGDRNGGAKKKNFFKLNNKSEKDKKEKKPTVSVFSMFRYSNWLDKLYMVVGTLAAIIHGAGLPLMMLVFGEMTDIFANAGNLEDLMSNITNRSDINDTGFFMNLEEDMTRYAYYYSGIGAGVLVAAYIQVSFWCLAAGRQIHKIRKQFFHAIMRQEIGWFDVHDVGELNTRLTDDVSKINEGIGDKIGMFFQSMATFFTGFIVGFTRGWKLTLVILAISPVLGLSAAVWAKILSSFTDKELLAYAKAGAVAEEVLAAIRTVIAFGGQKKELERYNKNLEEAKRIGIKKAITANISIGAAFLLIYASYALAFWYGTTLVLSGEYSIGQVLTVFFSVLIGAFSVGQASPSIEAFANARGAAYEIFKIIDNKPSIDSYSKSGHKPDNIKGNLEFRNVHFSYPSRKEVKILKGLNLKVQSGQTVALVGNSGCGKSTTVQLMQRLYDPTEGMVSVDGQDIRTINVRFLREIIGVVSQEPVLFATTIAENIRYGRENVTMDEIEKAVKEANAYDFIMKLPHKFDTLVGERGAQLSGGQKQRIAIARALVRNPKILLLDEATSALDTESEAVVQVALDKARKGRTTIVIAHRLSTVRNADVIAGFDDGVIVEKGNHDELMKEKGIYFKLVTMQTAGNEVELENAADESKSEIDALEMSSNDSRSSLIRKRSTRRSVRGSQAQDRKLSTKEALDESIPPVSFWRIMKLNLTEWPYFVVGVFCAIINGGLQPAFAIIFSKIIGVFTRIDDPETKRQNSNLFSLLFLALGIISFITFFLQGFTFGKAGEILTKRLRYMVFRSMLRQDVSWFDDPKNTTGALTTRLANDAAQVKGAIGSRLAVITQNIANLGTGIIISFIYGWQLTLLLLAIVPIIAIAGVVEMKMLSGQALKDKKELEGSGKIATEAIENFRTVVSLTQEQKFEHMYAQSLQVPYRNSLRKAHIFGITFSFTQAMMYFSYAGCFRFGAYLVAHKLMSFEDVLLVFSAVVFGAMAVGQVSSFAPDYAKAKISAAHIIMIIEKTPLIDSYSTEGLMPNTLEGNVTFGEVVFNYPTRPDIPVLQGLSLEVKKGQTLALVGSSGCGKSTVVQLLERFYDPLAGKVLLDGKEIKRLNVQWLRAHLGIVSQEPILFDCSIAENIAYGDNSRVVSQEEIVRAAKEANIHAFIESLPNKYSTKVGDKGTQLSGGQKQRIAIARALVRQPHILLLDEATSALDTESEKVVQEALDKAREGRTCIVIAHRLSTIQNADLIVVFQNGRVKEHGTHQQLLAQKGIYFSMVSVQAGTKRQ
Compound,inhibition of the P glycoprotein (P glycoprotein),"activity of the human NK cells over human tumor cells (normalized cell index) (human hepG2 tumor cells; 25 μM with NK cells, E:T 1.25:1 or 2.5:1, FIG. 4)",sensitivity of HepG2 tumor cells against the compound (human hepG2 tumor cells; compound without NK cells),viability of human NK cells (Human NK cells [1]),activity of NK cells on further tumor cell line (Hep3B),viability of PBMCs of healthy donors (PBMCs of healthy donors [2]),angiogenesis in vivo (angiogenesis),metabolic activity of PBMCs (PBMCs of healthy donors [3]),survival rate of the NK cells (Human NK cells [4]),antiproliferative effects on PC-3 (PC-3),activation of the PI (3) K/Akt signaling pathway [5],metabolic activity of NKL cells (NK cell line NKL),apoptosis in MCF7 cells (MCF7 cells),quantitative evaluation of the tumor cells (melanoma cells) [6],angiogenesis in vitro [7],"inhibition of histone deacetylases (HDACs) of classes I, II, and IV [8]",binding affinity for estrogen receptors [9],viability of NK cells of healthy donors [10],inhibition of MRP1 (MRP1),antiproliferative effects on DU145 (DU145)
"CC(C)=CCc1c(O)cc(O)c2c1OC(c1ccc(O)cc1)CC2=O (stereo not drawn) [8-PN, 5,7-dihydroxy-2-(4-hydroxy-phenyl)-8-(3-methyl-but-2-enyl)-chroman-4-one]",inhibition,increased activity of the human NK cells,low sensitivity,in parts significant increase of the viability,equivalent results,increase/extend viability,inhibits the angiogenesis,increase the metabolic activity,significantly increased,antiproliferative effects,directly inhibits the activation,increase the metabolic activity,induces furthermore the apoptosis,significant decrease of the melanoma cells,inhibits the angiogenesis,distinct inhibitors,strong binding affinity,increase/extend the viability,inhibition,antiproliferative effects
"O=C(CCCCCCC(=O)Nc1ccccc1)NO [SAHA, reference compound]",,,,significant decrease of the viability,,,,,,,,,,,,,,,,
